Like-named read-outs stand apart in the source and are kept apart here.
What was measured:
[1] = molecular target: T1, CHEK1 (Homo sapiens, UniProt O14757); assay: Kinase selectivity screen CHEK1; conditions: read-out: % inhibition of CHEK1
T1 sequence (O14757 1-476): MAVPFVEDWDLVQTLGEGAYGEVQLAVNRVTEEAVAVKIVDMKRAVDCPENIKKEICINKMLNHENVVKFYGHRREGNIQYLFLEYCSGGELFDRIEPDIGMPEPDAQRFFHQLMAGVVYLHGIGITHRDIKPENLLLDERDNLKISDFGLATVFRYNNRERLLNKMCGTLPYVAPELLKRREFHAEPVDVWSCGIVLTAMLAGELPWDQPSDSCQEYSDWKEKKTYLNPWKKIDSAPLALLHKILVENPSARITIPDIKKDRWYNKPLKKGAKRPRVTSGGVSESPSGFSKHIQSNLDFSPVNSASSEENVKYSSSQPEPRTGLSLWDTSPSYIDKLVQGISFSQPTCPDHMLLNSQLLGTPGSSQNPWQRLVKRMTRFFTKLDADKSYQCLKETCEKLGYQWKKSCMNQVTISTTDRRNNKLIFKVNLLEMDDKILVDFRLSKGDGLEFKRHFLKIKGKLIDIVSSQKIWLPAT

[2] = molecular target: PRKAA2 (Homo sapiens, UniProt P54646); assay: Kinase selectivity screen PRKAA2; conditions: read-out: % inhibition of PRKAA2
[3] = molecular target: T2, PRAK (Homo sapiens, UniProt Q8IW41); assay: Kinase selectivity screen PRAK; conditions: read-out: % inhibition of PRAK
T2 sequence (Q8IW41 1-473): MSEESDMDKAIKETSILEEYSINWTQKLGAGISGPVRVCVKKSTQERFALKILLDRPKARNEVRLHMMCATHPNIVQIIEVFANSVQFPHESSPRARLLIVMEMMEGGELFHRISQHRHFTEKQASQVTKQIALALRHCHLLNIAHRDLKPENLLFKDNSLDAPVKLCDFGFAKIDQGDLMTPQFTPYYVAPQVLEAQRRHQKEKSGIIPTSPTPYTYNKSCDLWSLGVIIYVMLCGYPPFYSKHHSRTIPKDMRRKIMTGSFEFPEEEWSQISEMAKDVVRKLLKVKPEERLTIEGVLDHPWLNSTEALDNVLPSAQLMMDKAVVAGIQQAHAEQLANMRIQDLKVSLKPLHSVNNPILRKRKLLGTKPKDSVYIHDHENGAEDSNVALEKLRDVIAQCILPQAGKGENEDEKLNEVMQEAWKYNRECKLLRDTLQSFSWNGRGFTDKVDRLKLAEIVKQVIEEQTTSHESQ

[4] = molecular target: CAMK2B (Homo sapiens, UniProt Q13554); assay: Kinase selectivity screen CAMK2B; conditions: read-out: % inhibition of CAMK2B
[5] = molecular target: PAK7 (Homo sapiens, UniProt Q9P286); assay: Kinase selectivity screen PAK7; conditions: read-out: % inhibition of PAK7
[6] = molecular target: ROCK2 (Homo sapiens, UniProt O75116); assay: Kinase selectivity screen ROCK2; conditions: read-out: % inhibition of ROCK2
[7] = molecular target: T3, Full-length human MNK1 (Homo sapiens, UniProt Q9BUB5, T385D); assay: MNK1 biochemical IC50 assay (Caliper Mobility Shift Assay)
T3 construct: GST (N); purchased Carna Biosciences 02-145; host or cells: baculovirus expression system

[8] = molecular target: MYLK (Homo sapiens, UniProt Q15746); assay: Kinase selectivity screen MYLK; conditions: read-out: % inhibition of MYLK
[9] = molecular target: RPS6KB1 (Homo sapiens, UniProt P23443); assay: Kinase selectivity screen RPS6KB1; conditions: read-out: % inhibition of RPS6KB1
[10] = molecular target: PRKCA (Homo sapiens, UniProt P17252); assay: Kinase selectivity screen PRKCA; conditions: read-out: % inhibition of PRKCA
[11] = molecular target: MTOR (Homo sapiens, UniProt P42345); assay: Kinase selectivity screen MTOR; conditions: read-out: % inhibition of MTOR
[12] = molecular target: PIP5K1C (Homo sapiens, UniProt O60331); assay: Kinase selectivity screen PIP5K1C; conditions: read-out: % inhibition of PIP5K1C
[13] = molecular target: NTRK1 (Homo sapiens, UniProt P04629); assay: Kinase selectivity screen NTRK1; conditions: read-out: % inhibition of NTRK1
[14] = molecular target: IGF1R (Homo sapiens, UniProt P08069); assay: Kinase selectivity screen IGF1R; conditions: read-out: % inhibition of IGF1R
[15] = read-out: P(IC50) MNK1 (converted)

CAMK2B, sequence (Q13554 whole entry, species assumed): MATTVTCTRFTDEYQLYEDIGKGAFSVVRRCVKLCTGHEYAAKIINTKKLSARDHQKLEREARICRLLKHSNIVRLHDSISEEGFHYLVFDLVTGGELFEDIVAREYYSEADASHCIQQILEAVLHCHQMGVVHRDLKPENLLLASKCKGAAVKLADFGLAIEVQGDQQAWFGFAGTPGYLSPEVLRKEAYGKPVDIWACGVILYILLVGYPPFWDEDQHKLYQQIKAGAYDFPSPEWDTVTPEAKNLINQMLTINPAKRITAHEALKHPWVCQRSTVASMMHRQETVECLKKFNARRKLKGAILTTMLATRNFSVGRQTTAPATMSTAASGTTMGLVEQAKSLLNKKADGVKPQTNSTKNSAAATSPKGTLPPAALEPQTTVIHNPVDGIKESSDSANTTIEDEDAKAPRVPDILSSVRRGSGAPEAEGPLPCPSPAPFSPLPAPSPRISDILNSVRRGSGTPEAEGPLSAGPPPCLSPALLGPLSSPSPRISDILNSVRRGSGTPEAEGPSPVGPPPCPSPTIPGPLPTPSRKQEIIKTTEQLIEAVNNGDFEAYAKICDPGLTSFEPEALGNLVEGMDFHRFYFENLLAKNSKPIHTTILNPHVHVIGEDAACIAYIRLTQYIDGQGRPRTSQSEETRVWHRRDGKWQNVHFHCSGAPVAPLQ
PRKAA2, sequence (P54646 whole entry, species assumed): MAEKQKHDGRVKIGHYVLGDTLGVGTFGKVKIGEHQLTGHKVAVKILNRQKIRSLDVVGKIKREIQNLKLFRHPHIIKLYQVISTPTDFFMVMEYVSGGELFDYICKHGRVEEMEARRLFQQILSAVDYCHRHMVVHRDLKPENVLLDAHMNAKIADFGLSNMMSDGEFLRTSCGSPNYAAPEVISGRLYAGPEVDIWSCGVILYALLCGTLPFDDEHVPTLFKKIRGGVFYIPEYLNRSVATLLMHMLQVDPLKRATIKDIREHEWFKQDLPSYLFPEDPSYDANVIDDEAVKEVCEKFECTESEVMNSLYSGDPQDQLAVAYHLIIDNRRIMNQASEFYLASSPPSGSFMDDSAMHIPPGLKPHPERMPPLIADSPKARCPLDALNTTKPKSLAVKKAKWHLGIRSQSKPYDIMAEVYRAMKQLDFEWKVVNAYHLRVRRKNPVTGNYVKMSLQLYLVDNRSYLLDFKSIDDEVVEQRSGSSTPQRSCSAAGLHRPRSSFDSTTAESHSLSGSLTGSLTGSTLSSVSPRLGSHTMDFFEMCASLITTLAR
PRKAA2, sequence (Q9Y478 whole entry partner, species assumed): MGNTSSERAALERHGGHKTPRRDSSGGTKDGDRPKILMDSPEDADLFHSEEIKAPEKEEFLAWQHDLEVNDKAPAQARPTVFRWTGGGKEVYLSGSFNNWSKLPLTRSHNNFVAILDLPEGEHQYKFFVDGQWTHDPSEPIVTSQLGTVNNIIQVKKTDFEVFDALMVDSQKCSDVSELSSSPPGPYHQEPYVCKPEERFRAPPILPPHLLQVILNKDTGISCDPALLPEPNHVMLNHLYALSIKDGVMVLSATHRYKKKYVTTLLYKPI
PRKAA2, sequence (P54619 whole entry partner, species assumed): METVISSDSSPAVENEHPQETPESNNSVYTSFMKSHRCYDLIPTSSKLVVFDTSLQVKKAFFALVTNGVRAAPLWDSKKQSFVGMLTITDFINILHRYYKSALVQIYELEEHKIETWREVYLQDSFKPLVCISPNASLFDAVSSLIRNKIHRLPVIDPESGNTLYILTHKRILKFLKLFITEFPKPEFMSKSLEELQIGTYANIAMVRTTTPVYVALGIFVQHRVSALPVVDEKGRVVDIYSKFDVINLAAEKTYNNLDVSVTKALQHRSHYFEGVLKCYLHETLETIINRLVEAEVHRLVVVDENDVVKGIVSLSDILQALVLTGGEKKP
T3 sequence (Q9BUB5 1-424 isoform Q9BUB5-2 T344D): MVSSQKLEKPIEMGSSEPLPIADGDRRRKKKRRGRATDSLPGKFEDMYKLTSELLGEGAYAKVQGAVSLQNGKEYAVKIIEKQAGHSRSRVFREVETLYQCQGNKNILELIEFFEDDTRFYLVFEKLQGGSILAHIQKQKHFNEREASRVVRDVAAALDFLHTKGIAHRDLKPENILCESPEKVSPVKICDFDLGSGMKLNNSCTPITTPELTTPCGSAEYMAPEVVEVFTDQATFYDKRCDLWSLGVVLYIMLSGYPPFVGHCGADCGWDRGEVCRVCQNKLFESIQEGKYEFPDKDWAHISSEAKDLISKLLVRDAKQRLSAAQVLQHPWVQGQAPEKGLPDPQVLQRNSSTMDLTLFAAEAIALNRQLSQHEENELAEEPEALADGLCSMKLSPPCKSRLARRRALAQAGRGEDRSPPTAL
ROCK2, sequence (O75116 whole entry, species assumed): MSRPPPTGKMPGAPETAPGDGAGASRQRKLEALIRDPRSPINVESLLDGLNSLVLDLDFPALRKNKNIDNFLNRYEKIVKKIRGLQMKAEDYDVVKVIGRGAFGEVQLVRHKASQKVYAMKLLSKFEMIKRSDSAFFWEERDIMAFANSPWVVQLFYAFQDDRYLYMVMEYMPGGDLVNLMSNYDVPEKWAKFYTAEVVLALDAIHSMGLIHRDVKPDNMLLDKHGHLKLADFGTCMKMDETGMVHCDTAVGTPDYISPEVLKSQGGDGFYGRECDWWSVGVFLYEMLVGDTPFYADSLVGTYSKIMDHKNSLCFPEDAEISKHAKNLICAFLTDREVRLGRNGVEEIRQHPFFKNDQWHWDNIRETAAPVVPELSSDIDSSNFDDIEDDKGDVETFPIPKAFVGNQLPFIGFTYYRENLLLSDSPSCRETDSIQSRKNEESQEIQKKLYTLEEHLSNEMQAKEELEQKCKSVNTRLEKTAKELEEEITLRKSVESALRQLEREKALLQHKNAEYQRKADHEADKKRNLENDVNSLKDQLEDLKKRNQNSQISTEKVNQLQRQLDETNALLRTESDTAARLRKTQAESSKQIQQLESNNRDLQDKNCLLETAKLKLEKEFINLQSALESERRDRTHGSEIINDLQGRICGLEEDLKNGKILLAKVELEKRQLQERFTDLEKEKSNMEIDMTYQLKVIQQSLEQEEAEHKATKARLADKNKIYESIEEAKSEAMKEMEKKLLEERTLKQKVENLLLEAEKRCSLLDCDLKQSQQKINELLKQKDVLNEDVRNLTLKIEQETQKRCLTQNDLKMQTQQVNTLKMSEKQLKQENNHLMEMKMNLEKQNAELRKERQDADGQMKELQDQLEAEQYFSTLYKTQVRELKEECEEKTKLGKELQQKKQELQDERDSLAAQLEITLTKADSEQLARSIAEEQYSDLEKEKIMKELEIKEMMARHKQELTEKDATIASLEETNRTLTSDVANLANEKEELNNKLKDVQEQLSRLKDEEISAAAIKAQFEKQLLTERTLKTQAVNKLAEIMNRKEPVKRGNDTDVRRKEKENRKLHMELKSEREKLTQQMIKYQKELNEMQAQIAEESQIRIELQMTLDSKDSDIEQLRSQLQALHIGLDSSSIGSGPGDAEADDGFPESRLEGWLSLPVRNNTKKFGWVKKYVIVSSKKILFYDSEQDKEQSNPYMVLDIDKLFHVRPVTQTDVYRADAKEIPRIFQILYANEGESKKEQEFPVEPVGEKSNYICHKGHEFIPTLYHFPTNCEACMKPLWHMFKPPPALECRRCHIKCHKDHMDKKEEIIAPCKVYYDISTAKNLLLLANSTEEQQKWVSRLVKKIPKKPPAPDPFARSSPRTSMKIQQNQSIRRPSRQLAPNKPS
NTRK1, sequence (P04629 33-796, species assumed): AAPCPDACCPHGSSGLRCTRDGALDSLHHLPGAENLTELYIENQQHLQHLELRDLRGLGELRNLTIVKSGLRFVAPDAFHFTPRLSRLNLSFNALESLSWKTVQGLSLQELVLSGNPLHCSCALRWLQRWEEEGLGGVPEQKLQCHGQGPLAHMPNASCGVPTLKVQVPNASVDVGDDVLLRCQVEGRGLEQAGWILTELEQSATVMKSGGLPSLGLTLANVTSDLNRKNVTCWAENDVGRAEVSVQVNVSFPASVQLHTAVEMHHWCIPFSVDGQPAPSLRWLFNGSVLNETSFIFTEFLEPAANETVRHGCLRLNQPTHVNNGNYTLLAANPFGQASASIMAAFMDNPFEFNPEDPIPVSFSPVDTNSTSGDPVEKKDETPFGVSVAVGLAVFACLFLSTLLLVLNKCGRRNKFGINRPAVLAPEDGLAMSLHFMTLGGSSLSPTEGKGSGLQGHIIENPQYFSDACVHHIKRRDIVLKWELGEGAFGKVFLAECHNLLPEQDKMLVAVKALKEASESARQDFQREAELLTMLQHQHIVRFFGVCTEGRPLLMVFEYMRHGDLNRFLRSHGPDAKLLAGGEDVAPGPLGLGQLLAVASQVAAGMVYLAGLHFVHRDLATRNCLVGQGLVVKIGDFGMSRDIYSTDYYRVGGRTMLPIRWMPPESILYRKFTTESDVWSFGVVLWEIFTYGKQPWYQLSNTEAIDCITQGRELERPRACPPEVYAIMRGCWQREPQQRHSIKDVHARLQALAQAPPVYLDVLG
MYLK, sequence (Q15746 1425-1771): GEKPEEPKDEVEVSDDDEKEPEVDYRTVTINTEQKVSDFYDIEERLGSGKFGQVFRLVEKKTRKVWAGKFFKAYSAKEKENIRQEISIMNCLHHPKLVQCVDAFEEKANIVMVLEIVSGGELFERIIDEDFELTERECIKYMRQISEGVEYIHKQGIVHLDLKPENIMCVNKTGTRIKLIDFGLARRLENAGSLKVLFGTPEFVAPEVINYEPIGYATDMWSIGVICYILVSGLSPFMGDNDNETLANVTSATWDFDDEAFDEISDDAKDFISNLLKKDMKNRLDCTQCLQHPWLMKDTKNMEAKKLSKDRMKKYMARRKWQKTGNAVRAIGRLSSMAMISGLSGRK

SMILES	inhibition at 1 µM [1]	inhibition at 1 µM [2]	inhibition at 1 µM [3]	inhibition at 1 µM [4]	inhibition at 1 µM [5]	inhibition at 1 µM [6]	IC50 [7]	inhibition at 1 µM [8]	inhibition at 1 µM [9]	inhibition at 1 µM [10]	inhibition at 1 µM [11]	inhibition at 1 µM [12]	inhibition at 1 µM [13]	inhibition at 1 µM [14]	IC50 [7, 15]
CC(C)Oc1cc(F)ccc1Nc1ncnc2sc(C(=O)NCC3CCNCC3)nc12 [Example 10, 7-(4-fluoro-2-isopropoxy-anilino)-N-(4-piperidylmethyl)thiazolo[5,4-d]pyrimidine-2-carboxamide]	0%	1%	0%	2%	1%	1%	50.1 nM	10%	0%	8%	4%	6%	10%	12%	
O=C(NCC1CCNCC1)c1nc2c(N3CCc4cc(F)ccc43)ncnc2s1 [Example 58, 7-(5-fluoroindolin-1-yl)-N-(4-piperidylmethyl)thiazolo[5,4-d]pyrimidine-2-carboxamide]	6%	1%	0%	17%	0%	8%		15%	0%	0%	0%	6%	0%	11%	5.01 nM
CN(C)CCCNC(=O)c1nc2c(N3CCc4cc(F)ccc43)ncnc2s1 [Example 64, N-[3-(dimethylamino)propyl]-7-(5-fluoroindolin-1-yl)thiazolo[5,4-d]pyrimidine-2-carboxamide]	35%	45%	0%	57%	0%	18%		15%	0%	0%	3%	3%	5%	0%	2.51 nM
